Data reported in ChEMBL document CHEMBL2380247, “Synthesis and biological evaluation of novel aliphatic amido-quaternary ammonium salts for anticancer chemotherapy: part II” (2013).

How the values were obtained:
Assay type in all cases: functional
NUGC-3 [1] = experiment: Antiproliferative activity against human NUGC3 cells at 0.3 uM by SRB assay
NUGC-3 [2] = experiment: Antiproliferative activity against human NUGC3 cells at 0.1 uM by SRB assay
NUGC-3 [3] = experiment: Antiproliferative activity against human NUGC3 cells at 1 uM by SRB assay
NUGC-3 [4] = experiment: Antiproliferative activity against human NUGC3 cells at 10 uM by SRB assay
NUGC-3 [5] = experiment: Antiproliferative activity against human NUGC3 cells at 3 uM by SRB assay
MDA-MB-231 [6] = experiment: Antiproliferative activity against human MDA-MB-231 cells at 0.1 uM by SRB assay
MDA-MB-231 [7] = experiment: Antiproliferative activity against human MDA-MB-231 cells at 0.3 uM by SRB assay
MDA-MB-231 [8] = experiment: Antiproliferative activity against human MDA-MB-231 cells at 1 uM by SRB assay
MDA-MB-231 [9] = experiment: Antiproliferative activity against human MDA-MB-231 cells at 10 uM by SRB assay
MDA-MB-231 [10] = experiment: Antiproliferative activity against human MDA-MB-231 cells at 3 uM by SRB assay
ACHN [11] = experiment: Antiproliferative activity against human ACHN cells at 0.1 uM by SRB assay
ACHN [12] = experiment: Antiproliferative activity against human ACHN cells at 1 uM by SRB assay
ACHN [13] = experiment: Antiproliferative activity against human ACHN cells at 0.3 uM by SRB assay
ACHN [14] = experiment: Antiproliferative activity against human ACHN cells at 3 uM by SRB assay
ACHN [15] = experiment: Antiproliferative activity against human ACHN cells at 10 uM by SRB assay
NCI-H23 [16] = experiment: Antiproliferative activity against human NCI-H23 cells at 0.3 uM by SRB assay
NCI-H23 [17] = experiment: Antiproliferative activity against human NCI-H23 cells at 0.1 uM by SRB assay
NCI-H23 [18] = experiment: Antiproliferative activity against human NCI-H23 cells at 3 uM by SRB assay
NCI-H23 [19] = experiment: Antiproliferative activity against human NCI-H23 cells at 1 uM by SRB assay
NCI-H23 [20] = experiment: Antiproliferative activity against human NCI-H23 cells at 10 uM by SRB assay
PC-3 [21] = experiment: Antiproliferative activity against human PC3 cells at 0.1 uM by SRB assay
PC-3 [22] = experiment: Antiproliferative activity against human PC3 cells at 1 uM by SRB assay
PC-3 [23] = experiment: Antiproliferative activity against human PC3 cells at 0.3 uM by SRB assay
PC-3 [24] = experiment: Antiproliferative activity against human PC3 cells at 3 uM by SRB assay
HCT-15 [25] = experiment: Antiproliferative activity against human HCT15 cells at 0.1 uM by SRB assay
PC-3 [26] = experiment: Antiproliferative activity against human PC3 cells at 10 uM by SRB assay
HCT-15 [27] = experiment: Antiproliferative activity against human HCT15 cells at 0.3 uM by SRB assay
HCT-15 [28] = experiment: Antiproliferative activity against human HCT15 cells at 3 uM by SRB assay
HCT-15 [29] = experiment: Antiproliferative activity against human HCT15 cells at 1 uM by SRB assay
HCT-15 [30] = experiment: Antiproliferative activity against human HCT15 cells at 10 uM by SRB assay
NCI-H23 [31] = experiment: Antiproliferative activity against human NCI-H23 cells by SRB assay
NUGC-3 [32] = experiment: Antiproliferative activity against human NUGC3 cells by SRB assay
HCT-15 [33] = experiment: Antiproliferative activity against human HCT15 cells by SRB assay
ACHN [34] = experiment: Antiproliferative activity against human ACHN cells by SRB assay
MDA-MB-231 [35] = experiment: Antiproliferative activity against human MDA-MB-231 cells by SRB assay
PC-3 [36] = experiment: Antiproliferative activity against human PC3 cells by SRB assay

SMILES | growth, % of control at 0.3 µM (NUGC-3 [1]) | growth, % of control at 0.1 µM (NUGC-3 [2]) | growth, % of control at 1 µM (NUGC-3 [3]) | growth, % of control at 10 µM (NUGC-3 [4]) | growth, % of control at 3 µM (NUGC-3 [5]) | growth, % of control at 0.1 µM (MDA-MB-231 [6]) | growth, % of control at 0.3 µM (MDA-MB-231 [7]) | growth, % of control at 1 µM (MDA-MB-231 [8]) | growth, % of control at 10 µM (MDA-MB-231 [9]) | growth, % of control at 3 µM (MDA-MB-231 [10]) | growth, % of control at 0.1 µM (ACHN [11]) | growth, % of control at 1 µM (ACHN [12]) | growth, % of control at 0.3 µM (ACHN [13]) | growth, % of control at 3 µM (ACHN [14]) | growth, % of control at 10 µM (ACHN [15]) | growth, % of control at 0.3 µM (NCI-H23 [16]) | growth, % of control at 0.1 µM (NCI-H23 [17]) | GI50 (NUGC-3 [32]) | GI50 (HCT-15 [33]) | GI50 (PC-3 [36]) | also measured
C=CC[N+](CC)(CC)CCN(C)C(=O)CCCCCCCCCCCCC | 45.3% | 109% | 1.1% | -7.8% | -3.5% | 93.2% | 82.5% | 28.7% | -11.6% | 6.6% | 69% | 16.8% | 42.6% | 8.6% | -9% | 74.2% | 88% | 140 nM | > 10 µM | 210 nM | growth, % of control at 3 µM (NCI-H23 [18]): 7.8%; growth, % of control at 1 µM (NCI-H23 [19]): 24.2%; growth, % of control at 10 µM (NCI-H23 [20]): -10%; growth, % of control at 0.1 µM (PC-3 [21]): 91.2%; growth, % of control at 1 µM (PC-3 [22]): 12.2%; growth, % of control at 0.3 µM (PC-3 [23]): 74.9%; growth, % of control at 3 µM (PC-3 [24]): -6%; growth, % of control at 0.1 µM (HCT-15 [25]): 97.4%; growth, % of control at 10 µM (PC-3 [26]): -21.6%; growth, % of control at 0.3 µM (HCT-15 [27]): 96.8%; growth, % of control at 3 µM (HCT-15 [28]): 85.1%; growth, % of control at 1 µM (HCT-15 [29]): 96.3%; growth, % of control at 10 µM (HCT-15 [30]): 57.9%; GI50 (NCI-H23 [31]): 240 nM; GI50 (ACHN [34]): 100 nM; GI50 (MDA-MB-231 [35]): 300 nM
CCCCCCCCCCCCCC(=O)N(C)CC[N+](CC)(CC)CC | 56.2% | 96.3% | 3% | -7.5% | -4.9% | 92.9% | 86.6% | 33.2% | -8% | 11.3% | 103% | 24.1% | 63.2% | 9.4% | -15.5% | 76.2% | 83.6% | 160 nM | 4.33 µM | 260 nM | growth, % of control at 3 µM (NCI-H23 [18]): 3.7%; growth, % of control at 1 µM (NCI-H23 [19]): 29%; growth, % of control at 10 µM (NCI-H23 [20]): -7.7%; growth, % of control at 0.1 µM (PC-3 [21]): 95.7%; growth, % of control at 1 µM (PC-3 [22]): 11.7%; growth, % of control at 0.3 µM (PC-3 [23]): 84.7%; growth, % of control at 3 µM (PC-3 [24]): -7.5%; growth, % of control at 0.1 µM (HCT-15 [25]): 90.7%; growth, % of control at 10 µM (PC-3 [26]): -22.4%; growth, % of control at 3 µM (HCT-15 [28]): 79.2%; growth, % of control at 1 µM (HCT-15 [29]): 88%; growth, % of control at 10 µM (HCT-15 [30]): 43.1%; GI50 (NCI-H23 [31]): 280 nM; GI50 (ACHN [34]): 230 nM; GI50 (MDA-MB-231 [35]): 360 nM
C=CC[N+](C)(C)CCCN(C)C(=O)CCCCCCCCCCCCC | 82.8% | 80.1% | 32.1% | -1.98% | 4.58% | 99.8% | 98.9% | 86.8% | 15.5% | 48.3% | 104% | 96% | 96.8% | 67% | 14.3% | 85.7% | 88.5% | 280 nM | > 10 µM | 310 nM | growth, % of control at 3 µM (NCI-H23 [18]): 12.2%; growth, % of control at 1 µM (NCI-H23 [19]): 55.6%; growth, % of control at 10 µM (NCI-H23 [20]): -7.17%; growth, % of control at 0.1 µM (PC-3 [21]): 93.3%; growth, % of control at 1 µM (PC-3 [22]): 35.4%; growth, % of control at 0.3 µM (PC-3 [23]): 82.3%; growth, % of control at 3 µM (PC-3 [24]): -10.8%; growth, % of control at 0.1 µM (HCT-15 [25]): 90.4%; growth, % of control at 10 µM (PC-3 [26]): -20.4%; growth, % of control at 0.3 µM (HCT-15 [27]): 82.4%; growth, % of control at 3 µM (HCT-15 [28]): 79.4%; growth, % of control at 1 µM (HCT-15 [29]): 92.8%; growth, % of control at 10 µM (HCT-15 [30]): 53.2%; GI50 (NCI-H23 [31]): 460 nM; GI50 (ACHN [34]): 1890 nM; GI50 (MDA-MB-231 [35]): 1350 nM
CCCCCCCCCCCCCCCC(=O)N(C)CCC[N+](C)(C)Cc1ccccc1 | 105% | 110% | 50.1% | -29.5% | -9.77% | 85.3% | 87.3% | 87.3% | 13.2% | 41% | 96.9% | 79.6% | 90.9% | 47.9% | -10.8% | 91.3% | 85.2% | 520 nM | > 10 µM | 850 nM | growth, % of control at 3 µM (NCI-H23 [18]): 25%; growth, % of control at 1 µM (NCI-H23 [19]): 91.6%; growth, % of control at 10 µM (NCI-H23 [20]): -8.96%; growth, % of control at 0.1 µM (PC-3 [21]): 87.8%; growth, % of control at 1 µM (PC-3 [22]): 70.9%; growth, % of control at 0.3 µM (PC-3 [23]): 94.9%; growth, % of control at 3 µM (PC-3 [24]): 24.4%; growth, % of control at 0.1 µM (HCT-15 [25]): 91.2%; growth, % of control at 10 µM (PC-3 [26]): 4.74%; growth, % of control at 0.3 µM (HCT-15 [27]): 96.6%; growth, % of control at 3 µM (HCT-15 [28]): 91.4%; growth, % of control at 1 µM (HCT-15 [29]): 96.5%; growth, % of control at 10 µM (HCT-15 [30]): 91%; GI50 (NCI-H23 [31]): 1110 nM; GI50 (ACHN [34]): 1300 nM; GI50 (MDA-MB-231 [35]): 1350 nM
CCCCCCCCCCCCCCCC(=O)N1CC[N+](C)(C)CC1 | – | – | – | – | – | – | – | – | – | – | – | – | – | – | – | – | – | 290 nM | 0.58 µM | 480 nM | –
CCCCCCCCCCCCCCCCCCOP(=O)([O-])OC1CC[N+](C)(C)CC1 [PERIFOSINE] | – | – | – | – | – | – | – | – | – | – | – | – | – | – | – | – | – | 540 nM | – | 440 nM | –
